# Like-named read-outs stand apart in the source and are kept apart here.
# What was measured:
# [1] = Hygroscopicity: open weighing bottles in a constant temperature and humidity incubator, moisture absorption rate; assay type: physicochemical; conditions: for hygroscopicity (in words): compared with the amorphous compound of structural formula (I); for Moisture absorption rates after 1 month / Moisture absorption rates after 2 months / Moisture absorption rates after 2 weeks: 25° C., 75% humidity
# Protocol: The crystal form A products prepared in example 1, example 2 and example 3 were taken and placed in weighing bottles for precision weighing. The caps of the bottles were opened, the bottles were put on an upper part of a drier and placed in a constant temperature and humidity incubator with 25° C. and 75% humidity, three parts were subjected to parallel operation, and then taken and weighed in two weeks, one month and two months respectively, and the compound amorphous powder of structural formula (I) was used as comparative example 1. Moisture absorption rate=(weight after moisture absorption - weight before moisture absorption)/weight before moisture absorption×100%.
# [2] = Absorption experiment (pharmacokinetics and bioavailability) in rats; assay type: in vivo; conditions: Sprague Dawley, plasma, rat; for bioavailability: oral, 150 mpk
# Protocol: Trial rats were Sprague Dawley rats, 7 rats in total, 1 rat was used as blank control, and blank plasma was taken to be used. 3 rats were administrated via tail intravenous injection (30 mpk), and 3 rats were orally and intragastrically administrated (150 mpk). According to the set time schedule, blood was collected from orbital vein to put in a blood collection vessel containing heparin sodium, centrifuged for 10min at 4° C. and 3500rpm, the supernatant of plasma was taken and put into EP tube, and the content of the compound of structural formula (I) in blood was detected. Bioavailability was calculated according to the following formula: bioavailability F %=(AUCpo/AUCIV)×(dose IV/dose po)×100%; Time schedule was set, as shown in Table 2. AUCpo is an area under the drug concentration-time curve under administrating oral drug, AUCIV is an area under the drug concentration-time curve under intravenous injecting drug, dose IV is the dose of the injected drug, the dose po is the dose of the oral drug, Tmax (h) is the time to reach the blood peak, T1/2 (h) is the half-life of blood concentration, and Cmax (ng/mL) is the drug peak concentration of the drug-time curve.
# IPF model (bleomycin) = test: Animal drug effect in the bleomycin-induced IPF model, intragastric administration; assay type: in vivo, C57BL/6 mice; conditions: for overall effect on idiopathic pulmonary fibrosis: bleomycin mouse model, vs Pirfenidone and Nintedanib
# Protocol: Trial mice were C57BL/6 mice, 35 mice in total, 7 mice in each group, including a saline group, a bleomycin group, a Nintedanib group (100 mpk), a Pirfenidone group (200 mpk) and a group (100 mpk) administrating the crystal form A of the compound of structural formula (I). On day 0, bleomycin (2U/kg) was injected using a trachea to establish an IPF model, 0-7 days were inflammation periods of mice, and 7-14 days were fibrosis lasting progressive periods of mice. Administration was conducted on the day 7, materials were taken on the day 14, the lung functions of mice were measured after mice were narcotized, then the left lungs were taken to make pathological sections, and the right lungs were used to measure hydroxyproline.
# [3] = 30 mg/kg, intravenous injection (30 mpk)
# [4] = 150 mg/kg, oral administration (150 mpk)
smiles,measurement,setting,value
CN(C)C[C@@H]1C(=O)O[C@@H]2C[C@@]3(C)CC[C@@H](O)[C@]4(CO4)[C@@H]3C[C@H]12.O=C(O)CCC(=O)O,hygroscopicity (in words),[1],obviously reduced
same,hygroscopicity (in words),[1]; listed as crystal form A of the compound (I),basically non-hygroscopic
same,AUC,[2]; [3],40.6 µg·h/mL
same,Cmax,[2]; [3],21300 ng/mL
same,Tmax,[2]; [3],0.11 h
same,half-life,[2]; [3],1.35 h
same,AUC,[2]; [4],174 µg·h/mL
same,Cmax,[2]; [4],56300 ng/mL
same,Tmax,[2]; [4],0.67 h
same,half-life,[2]; [4],1.91 h
same,bioavailability,"[2]; po 150 mpk vs iv 30 mpk, read-out: bioavailability",85.8%
same,"pathological sections (area of pulmonary fibrosis focus, alveolar structure)","IPF model (bleomycin); 100 mpk, administration from day 7, left lung taken on day 14",can obviously reduce the area of pulmonary fibrosis focus and normalize the alveolar structure
same,forced vital capacity (FVC),"IPF model (bleomycin); 100 mpk, day 14",can significantly improve the FVC of mice
same,pulmonary fibrosis area (fibrotic percentage),"IPF model (bleomycin); 100 mpk, day 14, vs Nintedanib (100 mpk) and Pirfenidone (200 mpk)",superior to the positive drugs
same,expression of hydroxyproline (content of collagen in the lungs),"IPF model (bleomycin); 100 mpk, right lung, day 14",can significantly reduce the content of collagen in the lungs
same,overall effect on idiopathic pulmonary fibrosis,IPF model (bleomycin),can significantly alleviate idiopathic pulmonary fibrosis
CN(C)C[C@@H]1C(=O)O[C@@H]2C[C@@]3(C)CC[C@@H](O)[C@]4(CO4)[C@@H]3C[C@H]12.O=C(O)CCC(=O)O [Example 1],Moisture absorption rates after 1 month,[1],2.7%
same,Moisture absorption rates after 2 months,[1],3.2%
same,Moisture absorption rates after 2 weeks,[1],1.4%
same,bioavailability,"[2]; crystal form A prepared by the methods in example 1 and example 3, read-out: bioavailabilities",> 85.5%
same,overall effect on idiopathic pulmonary fibrosis,IPF model (bleomycin),can significantly alleviate idiopathic pulmonary fibrosis
CN(C)C[C@@H]1C(=O)O[C@@H]2C[C@@]3(C)CC[C@@H](O)[C@]4(CO4)[C@@H]3C[C@H]12.O=C(O)CCC(=O)O [Example 2],Moisture absorption rates after 1 month,[1],3.8%
same,Moisture absorption rates after 2 months,[1],3.1%
same,Moisture absorption rates after 2 weeks,[1],1.9%
CN(C)C[C@@H]1C(=O)O[C@@H]2C[C@@]3(C)CC[C@@H](O)[C@]4(CO4)[C@@H]3C[C@H]12.O=C(O)CCC(=O)O [Example 3],Moisture absorption rates after 1 month,[1],2.2%
same,Moisture absorption rates after 2 months,[1],2.8%
same,Moisture absorption rates after 2 weeks,[1],1.6%
same,overall effect on idiopathic pulmonary fibrosis,IPF model (bleomycin),can significantly alleviate idiopathic pulmonary fibrosis
CN(C)C[C@@H]1C(=O)O[C@@H]2C[C@@]3(C)CC[C@@H](O)[C@]4(CO4)[C@@H]3C[C@H]12.O=C(O)CCC(=O)O [compound 1],Moisture absorption rates after 1 month,[1],12.7%
same,Moisture absorption rates after 2 months,[1],22.6%
same,Moisture absorption rates after 2 weeks,[1],8.1%
